On the set-up of data set [1]: method as in PMID 29297106. To be noted: earlier studies; cited from earlier work.
For data set [2] the following is noted: cited from earlier work.
The target of the next data set is T1, CYP3A4 (Homo sapiens, UniProt P08684).
T1 construct: purchased Promega (Madison, WI, USA)
Also on record: method as in PMID 28212021. To be noted: cited from earlier work.

The target of another data set is T2, CYP2D6 (Homo sapiens, UniProt P10635).
T2 construct: purchased Promega (Madison, WI, USA)
T2 sequence (P10635 whole entry): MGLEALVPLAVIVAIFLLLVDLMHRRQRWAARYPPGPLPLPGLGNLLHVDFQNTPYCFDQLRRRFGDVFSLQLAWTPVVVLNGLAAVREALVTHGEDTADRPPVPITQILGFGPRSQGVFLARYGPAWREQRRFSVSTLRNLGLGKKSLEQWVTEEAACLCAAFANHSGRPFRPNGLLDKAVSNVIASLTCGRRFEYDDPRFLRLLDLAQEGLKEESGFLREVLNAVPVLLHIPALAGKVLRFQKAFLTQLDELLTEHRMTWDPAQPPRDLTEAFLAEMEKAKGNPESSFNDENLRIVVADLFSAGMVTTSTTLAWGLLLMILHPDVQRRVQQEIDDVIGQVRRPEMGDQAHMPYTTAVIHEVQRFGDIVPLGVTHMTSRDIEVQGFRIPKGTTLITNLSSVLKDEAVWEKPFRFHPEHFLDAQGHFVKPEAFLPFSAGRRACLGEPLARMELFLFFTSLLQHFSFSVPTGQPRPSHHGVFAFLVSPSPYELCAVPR
Also on record: method as in PMID 28212021. To be noted: cited from earlier work.

A short description of data set [3]: Parallel artificial membrane permeability assay (PAMPA). In general terms: The PAMPA barrier holds no transporters, so it reflects passive diffusion.
For a further data set, the target named is 5-HT1A. The arrangement: method as in PMID 30282913. As to conditions: radioligand binding, average of at least two independent experiments; read-out: Ki 5-HT1A [3H]-8-OH-DPAT; cited from earlier work.
In another data set the target is 5-HT6. The arrangement: method as in PMID 30282913. As to conditions: radioligand binding, average of at least two independent experiments; read-out: Ki 5-HT6 [3H]-LSD; cited from earlier work.
A further data set concerns the target D2. The arrangement: method as in PMID 30282913. As to conditions: radioligand binding, average of at least two independent experiments; read-out: Ki D2 [3H]-Raclopride; cited from earlier work.
Data set [4] relates to human embryonic kidney (HEK)-293 cells. The arrangement: method as in PMID 30282913. To be noted: highest concentration 100 µM; cited from earlier work.
A short description of data set [5]: Hepatotoxicity assay, HepG2 cell viability. The format is cell-based. As to conditions: human, HepG2 hepatoma cells, 100 µM, read-out: HepG2 cell viability, % of the control. The protocol:
The cell-based assays were used to investigate safety of the 5-HT6R ligands. […] During the same study, no effect for KMP-10 was observed. Additional safety tests with the hepatoma HepG2 cell line were performed here to estimate the compounds’ hepatotoxicity. A slight antiproliferative effect was observed only for DJ-18 at 100 µM, where the cell viability was decreased to up to ~83% of the control (Figure 9a).
Hepatotoxicity was estimated using the hepatoma HepG2 (ATCC® HB-8065^TM) cell line according to previously described protocols. The CellTiter 96® AQueous Non-Radioactive Cell Proliferation Assay was obtained from Promega (Madison, WI, USA). The compounds were investigated in quadruplicate at four concentrations (0.1–100 µM) for 72h. The antiproliferative drug DX was used as a positive control at a dose of 1 µM.

The nature of data set [6]: Metabolic stability and metabolic pathways in human liver microsomes. (In general: Liver microsomes are a subcellular fraction often used to study metabolism.)
Description: The pharmacokinetic parameters of compounds were estimated by using human liver microsomes (HLMs) (Sigma-Aldrich, St. Louis, MO, USA). The t1/2 values and intrinsic clearances (CLint) were calculated with IS by using the protocols and formulas proposed by Obach [38]. […] VL was used as the reference unstable drug.
The target of the next data set is 5-HT7. Also on record: method as in PMID 30282913. To be noted: radioligand binding, average of at least two independent experiments; read-out: Ki 5-HT7 [3H]-5-CT; cited from earlier work.

The structures appear in SMILES notation.

T1 sequence (P08684 whole entry): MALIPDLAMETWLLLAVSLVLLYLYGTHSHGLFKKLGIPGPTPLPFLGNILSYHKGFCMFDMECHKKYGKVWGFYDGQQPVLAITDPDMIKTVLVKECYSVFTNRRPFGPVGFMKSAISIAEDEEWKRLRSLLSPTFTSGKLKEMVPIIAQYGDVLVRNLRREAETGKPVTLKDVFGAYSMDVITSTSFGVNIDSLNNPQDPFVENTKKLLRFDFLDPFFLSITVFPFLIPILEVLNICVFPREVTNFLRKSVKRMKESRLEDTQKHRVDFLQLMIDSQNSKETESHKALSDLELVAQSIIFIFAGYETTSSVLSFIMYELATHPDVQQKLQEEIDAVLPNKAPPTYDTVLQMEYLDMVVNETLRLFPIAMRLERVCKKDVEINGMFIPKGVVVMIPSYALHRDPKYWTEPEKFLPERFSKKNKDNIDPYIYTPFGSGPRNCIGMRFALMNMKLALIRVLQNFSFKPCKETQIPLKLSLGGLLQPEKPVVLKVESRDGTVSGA

Take `Fc1ccc2c(CCNCc3cccc(OCC(F)(F)C(F)F)c3)c[nH]c2c1` [Idalopirdine]: in data set [1], the “Amount of visceral fat” value is “significantly reduced” and the Elevated glucose levels entry was “compensated for elevated glucose levels”.

Consider `COc1ccc2c(c1)c(CN1CCN(C)CC1)cn2S(=O)(=O)c1ccccc1Br.CS(=O)(=O)O.CS(=O)(=O)O.O` [SUVN-502, 1-[(2-Bromophenyl)sulfonyl]-5-methoxy-3-[(4-methyl-1-piperazinyl)methyl]-1H-indole Dimesylate Monohydrate], for which the BBB-penetration result in [2] (after oral administration) was “good BBB (blood brain barrier)-penetration”. In data set [2] (pharmacokinetics in vivo), the t1/2 in vivo is on record as 0.95 h. Further, at CYP3A4, the CYP3A4 inhibition result is recorded as “rather strong inhibitor”. Also, the CYP2D6 inhibition result at CYP2D6 is on record as “weaker inhibitor”.

For `CCn1cc(C(=O)O)c(=O)c2cc(F)c(N3CCNCC3)cc21` [Norfloxacin, norfloxacin, reference compound], the “PAMPA Pe ± SD” value in data set [3] (200 µM in PBS pH 7.4, 5 h, room temperature, triplicate) is 0.56 ± 0.13 10^−6 cm/s.

The Ki is the dissociation constant of the complex between target and ligand, obtained from inhibition or displacement. The viability is a read-out of living cells in per cent, often relative to untreated cells. By half-life is commonly meant the time in which the quantity being followed falls by half. A word on the Papp: it is the rate of passage across a membrane or cell layer, normalised by area and donor concentration. Low values mean poor permeation, high ones ready permeation. As for `CN1CCN(c2nc(N)nc(CN3C(=O)N(Cc4ccc(Cl)cc4)C(C)(C)C3=O)n2)CC1` [DJ-18], on 5-HT1A, the Ki is 23.3 µM. Moreover, at 5-HT6, the Ki is 0.127 µM. The Ki on D2 was 4.1 µM. In data set [4], the HEK-293 cells viability entry is given as “statistically significant slight decrease”. In addition, the viability at 72 h, 100 µM in data set [5] is ~83%. For the same compound, in data set [6] (HLMs, 120 min incubation), the “Metabolic Pathway, metabolite M1” value is “demethylation”; the “Metabolic Pathway, metabolite M2” value was “hydroxylation”; the “Metabolic Pathway, metabolite M3” value was “demethylation and hydroxylation”; the “Metabolic Pathway, metabolite M4” value is reported as “hydroxylation”. Besides, in data set [6] (HLMs, reactions terminated at 5, 15, 30 and 45 min), the “Intrinsic Clearance CLint” value was 4.32 mL/min/kg. Moreover, the “t1/2, fold longer than verapamil” value in [6] (HLMs, vs unstable reference verapamil) is on record as ~ 6 fold. In addition, the half-life in data set [6] (human, liver microsomes, Half-Life t1/2, HLMs, reactions terminated at 5, 15, 30 and 45 min) was 3.12 h. Moreover, the apparent permeability coefficient (Papp) at 5 h, 200 µM in [3] (PAMPA, pH 7.4) is 24.9 ± 0.45 ×10⁻⁶ cm/s. For the same compound, the “PAMPA ability to penetrate the artificial membrane, fold stronger than caffeine” value in data set [3] (vs high-permeable reference caffeine) is ~ 1.65. Also, at 5-HT7, the Ki is 3.71 µM.

Source of the values: article PMC6943527, “Are the Hydantoin-1,3,5-triazine 5-HT6R Ligands a Hope to a Find New Procognitive and Anti-Obesity Drug? Considerations Based on Primary In Vivo Assays and ADME-Tox Profile In Vitro” (Molecules, 2019).
